Data published in US10329282B2, “Rho-associated protein kinase inhibitor, pharmaceutical composition comprising the same, as well as preparation method and use thereof” (Beijing Tide Pharmaceutical Co., Ltd., priority 2017, dated 2019).

Biological target: ROCK2 (Homo sapiens (Human), UniProt O75116)
Experiment: ROCK2 kinase IC50 assay (CISBIO HTRF KinEASE-STK S2 kit)
Format: biochemical
Conditions: ROCK2 from Carna Biosciences, 2 h incubation at room temperature
Procedure, shortened: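 ROCK2 reaction with STK-S2 substrate and ATP (5× working solutions 1.5 μM each), 2 h at room temperature; 9-point compound dilutions from 10000 nM. HTRF 665/615 emission ratio gave % inhibition versus kinase and no-kinase controls; IC50 by curve fit.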

Sequence of ROCK2 (O75116 1-553): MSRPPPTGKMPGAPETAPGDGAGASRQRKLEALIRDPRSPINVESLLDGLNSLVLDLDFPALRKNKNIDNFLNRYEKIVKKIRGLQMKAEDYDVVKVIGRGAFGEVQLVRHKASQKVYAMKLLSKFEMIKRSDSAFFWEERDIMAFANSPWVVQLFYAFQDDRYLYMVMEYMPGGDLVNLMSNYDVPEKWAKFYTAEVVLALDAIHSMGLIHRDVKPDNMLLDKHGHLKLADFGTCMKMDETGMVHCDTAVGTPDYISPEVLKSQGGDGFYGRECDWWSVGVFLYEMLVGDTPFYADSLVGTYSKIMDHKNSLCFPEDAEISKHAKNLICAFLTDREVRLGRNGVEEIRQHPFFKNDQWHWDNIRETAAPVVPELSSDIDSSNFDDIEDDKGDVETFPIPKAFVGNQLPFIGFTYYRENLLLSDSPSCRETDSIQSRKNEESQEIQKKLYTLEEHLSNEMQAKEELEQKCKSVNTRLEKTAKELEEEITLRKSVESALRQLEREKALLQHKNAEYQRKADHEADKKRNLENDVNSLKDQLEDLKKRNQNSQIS

Row | IC50 [µM] | Structure (SMILES)
1 | 0.073 | CC(C)NC(=O)N1Cc2ccc(-c3nccc(Nc4ccc5[nH]ncc5c4)n3)cc2C1 [TDI01312, 5-(4-((1H-indazol-5-yl)amino)pyrimidin-2-yl)-N-isopropylisoindoline-2-carboxamide]
2 | 0.101 | O=C(NC1CC1)c1cc2ccc(-c3nccc(Nc4ccc(-c5cn[nH]c5)cc4)n3)cc2[nH]1 [TDI01324, 6-(4-((4-(1H-pyrazol-4-yl)phenyl)amino)pyrimidin-2-yl)-N-cyclopropyl-1H-indole-2-carboxamide]
3 | 0.066 | CC(C)NC(=O)c1cc2ccc(-c3nc(Nc4ccc5[nH]ncc5c4)c4sccc4n3)cc2s1 [TDI01136, 6-(4-((1H-indazol-5-yl)amino)thieno[3,2-d]pyrimidin-2-yl)-N-isopropylbenzo[b]thiophene-2-carboxamide]
4 | 0.016 | O=C(Nc1ccncc1)c1cc2ccc(-c3nccc(Nc4ccc5[nH]ncc5c4)n3)cc2[nH]1 [TDI01153, 6-(4-((1H-indazol-5-yl)amino)pyrimidin-2-yl)-N-(pyridin-4-yl)-1H-indole-2-carboxamide]
5 | 0.134 | O=C(Nc1nncs1)c1cc2ccc(-c3nccc(Nc4ccc5[nH]ncc5c4)n3)cc2[nH]1 [TDI01247, 6-(4-((1H-indazol-5-yl)amino)pyrimidin-2-yl)-N-(1,3,4-thiadiazol-2-yl)-1H-indole-2-carboxamide]
6 | 0.352 | CN(C)C(=O)c1cc2ccc(-c3nccc(Nc4ccc(-c5cn[nH]c5)cc4)n3)cc2[nH]1 [TDI01294, 6-(4-((4-(1H-pyrazol-4-yl)phenyl)amino)pyrimidin-2-yl)-N,N-dimethyl-1H-indole-2-carboxamide]
7 | 0.21 | O=C(Nc1ccncn1)c1cc2ccc(-c3nccc(Nc4ccc5[nH]ncc5c4)n3)cc2[nH]1 [TDI01161, 6-(4-((1H-indazol-5-yl)amino)pyrimidin-2-yl)-N-(pyrimidin-4-yl)-1H-indole-2-carboxamide]
8 | 0.474 | O=C(c1cc2ccc(-c3nccc(Nc4ccc(-c5cn[nH]c5)cc4)n3)cc2[nH]1)N1CCC1 [TDI01330, (6-(4-((4-(1H-pyrazol-4-yl)phenyl)amino)pyrimidin-2-yl)-1H-indol-2-yl)(azetidin-1-yl)methanone]
9 | 0.119 | O=C(c1cc2ccc(-c3nccc(Nc4ccc(-c5cn[nH]c5)cc4)n3)cc2[nH]1)N1CCC2(CCNCC2)CC1 [TDI01425, (6-(4-((4-(1H-pyrazol-4-yl)phenyl)amino)pyrimidin-2-yl)-1H-indol-2-yl)(3,9-diazaspiro[5.5]undecan-3-yl)methanone]
10 | 0.028 | O=C(c1cc2ccc(-c3nccc(Nc4ccc(-c5cn[nH]c5)cc4)n3)cc2[nH]1)N1CC(C(F)F)C1 [TDI01435]
